Data reported in patent US20240067693A1, “POLYPEPTIDES AND USES THEREOF” (MEDIMMUNE LIMITED, priority 2020, published 2024).
Numbered stars: 1 amine (or outer) side, 2 acyl side, 3 side chain; on linkers, the order of the positions; unused ones are H or OH. Bridge positions count the residues as written; N and C are the ends. Square brackets hold non-standard residues; d marks the D form. Side chains are listed from the residue outwards. Peptide text beside a SMILES is read from it. * marks the point of attachment. C18 diacid = O=C(O)CCCCCCCCCCCCCCCCC(=O)*; γGlu = O=C(O)[C@H](CCC(=O)[*:2])N[*:1]; αMeF = C[C@](N)(Cc1ccccc1)C(=O)O; Dab = NCC[C@H](N)C(=O)O; Aib = CC(C)(N)C(=O)O

What was measured:
[1] = target: T1, rat amylin receptor (calcitonin receptor co-expressed with receptor activity modifying protein, RAMP3) (Rat AMYR3) (Rattus norvegicus, UniProt P32214+Q9JJ73); test: cAMP production in HEK cells with stable recombinant expression of rat amylin receptor (Rat AMYR3); assay type: cell-based; settings: assay buffer with 0.1% BSA
T1 construct: expressed in transfected cells
T1 sequence (P32214 25-516): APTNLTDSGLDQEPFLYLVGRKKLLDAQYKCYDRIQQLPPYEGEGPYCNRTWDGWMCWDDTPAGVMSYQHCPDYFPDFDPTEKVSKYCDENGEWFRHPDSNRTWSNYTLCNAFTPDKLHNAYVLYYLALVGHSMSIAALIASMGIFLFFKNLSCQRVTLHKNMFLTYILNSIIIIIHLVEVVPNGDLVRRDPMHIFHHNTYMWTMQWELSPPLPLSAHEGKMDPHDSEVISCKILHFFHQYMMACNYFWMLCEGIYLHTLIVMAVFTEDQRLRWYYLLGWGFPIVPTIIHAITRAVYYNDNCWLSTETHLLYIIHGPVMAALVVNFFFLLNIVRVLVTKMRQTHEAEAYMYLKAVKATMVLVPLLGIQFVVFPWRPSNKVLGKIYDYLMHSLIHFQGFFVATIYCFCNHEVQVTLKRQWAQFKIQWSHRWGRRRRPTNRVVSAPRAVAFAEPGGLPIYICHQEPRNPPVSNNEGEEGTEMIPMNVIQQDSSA
T1 sequence (Q9JJ73 23-147 partner): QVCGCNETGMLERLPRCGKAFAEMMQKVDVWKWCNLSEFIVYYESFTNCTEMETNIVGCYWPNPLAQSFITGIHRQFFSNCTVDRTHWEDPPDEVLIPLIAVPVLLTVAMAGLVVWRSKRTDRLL
How it was run: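 EC50 values come from 4-parameter logistic fits of HTRF cAMP signal, normalised to maximal calcitonin or amylin effect. Peptides were tested in duplicate for 30 min at RT in IBMX-containing (0.5 mM) BSA/HEPES buffer pH 7.4 on stable 1321N1 (human CTR, AMYR3) or HEK (rat CTR, AMYR3) lines.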

[2] = Thioflavin T fibrillation assay; assay type: physicochemical; settings: for Time taken to detect increase in fluorescence intensity: ThT fibrillation assay, peptide 1 mg/mL in 25 mM sodium acetate buffer pH 4.0, 6 days at 37 °C with shaking, >144 h = no increase
How it was run: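 Peptides at 1 mg/mL in 25 mM sodium acetate pH 4.0 with ThT (from 0.25 mM stock), incubated 6 days at 37 °C with intermittent orbital shaking at 500–750 rpm. Fluorescence (ex 444/em 480 nm) read every 30 min; value is average time to a rise in baseline-corrected signal.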

lean rats = test: Rat acute food intake study; assay type: in vivo; settings: lean male Sprague Dawley rats, 20 nmol/kg subcutaneously
How it was run: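 Male Sprague Dawley rats (n=7/group), fasted 6 h, received 20 nmol/kg test compound or 60 nmol/kg pramlintide subcutaneously 30 min before food return at dark onset. Food intake recorded automatically in home cages over 3 days, binned hourly and analysed as cumulative dark-period intake; body weight taken daily.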

Compound | EC50 [1] [pM] | fibril-forming tendency ([2]; ThT assay, 1 mg/mL, pH 4.0, 37 °C, compared to pramlintide) | Time taken to detect increase in fluorescence intensity [2] [h] | Cummulative food intake (% vehicle treated intake) At 12 h (lean rats) [% vehicle treated intake] | Cummulative food intake (% vehicle treated intake) At 24 h (lean rats) [% vehicle treated intake] | Cummulative food intake (% vehicle treated intake) At 48 h (lean rats) [% vehicle treated intake]
CC[C@H](C)[C@H](NC(=O)[C@@H]1CCCN1C(=O)CNC(=O)[C@H](Cc1ccccc1)NC(=O)[C@H](CC(N)=O)NC(=O)[C@H](CC(N)=O)NC(=O)[C@H](CO)NC(=O)[C@H](CO)NC(=O)[C@H](Cc1c[nH]cn1)NC(=O)[C@@H](NC(=O)[C@H](CC(C)C)NC(=O)[C@H](Cc1ccccc1)NC(=O)[C@H](CC(N)=O)NC(=O)[C@H](C)NC(=O)[C@H](CC(C)C)NC(=O)[C@H](CCCNC(=N)N)NC(=O)[C@H](CCC(N)=O)NC(=O)[C@@H](NC(=O)[C@H](C)NC(=O)[C@@H]1CSSC[C@H](NC(=O)[C@H](CCCCN)NC(=O)CC[C@H](NC(=O)CCCCCCCCCCCCCCCCC(=O)O)C(=O)O)C(=O)N[C@@H](CC(N)=O)C(=O)N[C@@H]([C@@H](C)O)C(=O)N[C@@H](C)C(=O)N[C@@H]([C@@H](C)O)C(=O)N1)[C@@H](C)O)C(C)C)C(=O)N[C@@H](CC(C)C)C(=O)N1CCC[C@H]1C(=O)N1CCC[C@H]1C(=O)N[C@H](C(=O)N[C@@H](CC(N)=O)C(=O)N[C@H](C(=O)NCC(=O)N[C@@H](CO)C(=O)N[C@@H](CC(N)=O)C(=O)N[C@H](C(=O)N[C@@H](Cc1ccc(O)cc1)C(N)=O)[C@@H](C)O)C(C)C)[C@@H](C)O [Peptide 3] ({C18 diacid-γGlu}-KCNTATCATQRLANFLVHSSNNFGPILPPTNVGSNTY-NH2; disulfide 2-7) | 2.9 | increases the fibril-forming tendency | <5 | 13.4 | 14.4 | 30.3
CC[C@H](C)[C@H](NC(=O)[C@H](C)NC(=O)[C@@H]1CCCN1C(=O)[C@H](Cc1ccccc1)NC(=O)[C@H](CC(N)=O)NC(=O)[C@H](CCN)NC(=O)[C@H](CO)NC(=O)[C@H](CO)NC(=O)[C@H](Cc1c[nH]cn1)NC(=O)[C@@H](NC(=O)[C@H](CC(C)C)NC(=O)[C@H](Cc1ccccc1)NC(=O)[C@H](CC(N)=O)NC(=O)[C@H](C)NC(=O)[C@H](CC(C)C)NC(=O)[C@H](CCCNC(=N)N)NC(=O)[C@H](CCC(N)=O)NC(=O)[C@@H](NC(=O)[C@H](C)NC(=O)[C@@H]1CSSC[C@H](NC(=O)[C@@H](N)CCCCNC(=O)CC[C@H](NC(=O)CC[C@H](NC(=O)CCCCCCCCCCCCCCCCC(=O)O)C(=O)O)C(=O)O)C(=O)N[C@@H](CC(N)=O)C(=O)N[C@@H]([C@@H](C)O)C(=O)N[C@@H](C)C(=O)N[C@@H]([C@@H](C)O)C(=O)N1)[C@@H](C)O)C(C)C)C(=O)N[C@@H](CC(C)C)C(=O)N[C@@H](CO)C(=O)N1CCC[C@H]1C(=O)N[C@H](C(=O)N[C@@H](CC(N)=O)C(=O)N[C@H](C(=O)NCC(=O)N[C@@H](CO)C(=O)N[C@@H](CC(N)=O)C(=O)N[C@H](C(=O)N[C@@H](Cc1ccc(O)cc1)C(N)=O)[C@@H](C)O)C(C)C)[C@@H](C)O [Peptide 8, K(γE-γE-C18diacid)[CNTATC]ATQRLANFLVHSS(Dab)NFPAILSPTNVGSNTY-amide] (H-K([γGlu-γGlu-C18 diacid])CNTATCATQRLANFLVHSS[Dab]NFPAILSPTNVGSNTY-NH2; disulfide 2-7) | 25.6 |  | 7 | 28.1 | 42.7 | 68.8
CC[C@H](C)[C@H](NC(=O)[C@H](C)NC(=O)[C@@H]1CCCN1C(=O)[C@H](Cc1ccccc1)NC(=O)[C@H](CC(N)=O)NC(=O)C(C)(C)NC(=O)[C@H](CO)NC(=O)[C@H](CO)NC(=O)[C@H](Cc1c[nH]cn1)NC(=O)[C@@H](NC(=O)[C@H](CC(C)C)NC(=O)[C@H](Cc1ccccc1)NC(=O)[C@H](CC(N)=O)NC(=O)[C@H](C)NC(=O)[C@H](CC(C)C)NC(=O)[C@H](CCCNC(=N)N)NC(=O)[C@H](CCC(N)=O)NC(=O)[C@@H](NC(=O)[C@H](C)NC(=O)[C@@H]1CSSC[C@H](NC(=O)[C@@H](N)CCCCNC(=O)CC[C@H](NC(=O)CC[C@H](NC(=O)CCCCCCCCCCCCCCCCC(=O)O)C(=O)O)C(=O)O)C(=O)N[C@@H](CC(N)=O)C(=O)N[C@@H]([C@@H](C)O)C(=O)N[C@@H](C)C(=O)N[C@@H]([C@@H](C)O)C(=O)N1)[C@@H](C)O)C(C)C)C(=O)N[C@@H](CC(C)C)C(=O)N[C@@H](CO)C(=O)N1CCC[C@H]1C(=O)N[C@H](C(=O)N[C@@H](CC(N)=O)C(=O)N[C@H](C(=O)NCC(=O)N[C@@H](CO)C(=O)N[C@@H](CC(N)=O)C(=O)N[C@H](C(=O)N[C@@H](Cc1ccc(O)cc1)C(N)=O)[C@@H](C)O)C(C)C)[C@@H](C)O [Peptide 9, K(γE-γE-C18diacid)[CNTATC]ATQRLANFLVHSS(Aib)NFPAILSPTNVGSNTY-amide] (H-K([γGlu-γGlu-C18 diacid])CNTATCATQRLANFLVHSS[Aib]NFPAILSPTNVGSNTY-NH2; disulfide 2-7) | 17.8 |  | 7 | 21.9 | 30.8 | 56.5
CC[C@H](C)[C@H](NC(=O)[C@@H]1CCCN1C(=O)CNC(=O)[C@](C)(Cc1ccccc1)NC(=O)[C@H](CC(N)=O)NC(=O)[C@H](CC(N)=O)NC(=O)[C@H](CO)NC(=O)[C@H](CO)NC(=O)[C@H](Cc1c[nH]cn1)NC(=O)[C@H](CCCNC(=N)N)NC(=O)[C@H](CC(C)C)NC(=O)[C@H](Cc1ccccc1)NC(=O)[C@H](CCC(=O)O)NC(=O)[C@H](C)NC(=O)[C@H](CC(C)C)NC(=O)[C@H](CCCNC(=N)N)NC(=O)[C@H](CCC(N)=O)NC(=O)[C@@H](NC(=O)[C@H](C)NC(=O)[C@@H]1CSSC[C@H](NC(=O)CC[C@H](NC(=O)CCCCCCCCCCCCCCCCC(=O)O)C(=O)O)C(=O)N[C@@H](CC(N)=O)C(=O)N[C@@H]([C@@H](C)O)C(=O)N[C@@H](C)C(=O)N[C@@H]([C@@H](C)O)C(=O)N1)[C@@H](C)O)C(=O)N[C@@H](CC(C)C)C(=O)N1CCC[C@H]1C(=O)N1CCC[C@H]1C(=O)N[C@H](C(=O)N[C@@H](CC(N)=O)C(=O)N[C@H](C(=O)NCC(=O)N[C@@H](CO)C(=O)N[C@@H](CC(N)=O)C(=O)N[C@H](C(=O)N[C@@H](Cc1ccc(O)cc1)C(N)=O)[C@@H](C)O)C(C)C)[C@@H](C)O [Peptide 10, C18diacid-γE-[CNTATC]ATQRLAEFLRHSSNN(αMePhe)GPILPPTNVGSNTY-amide] ({C18 diacid-γGlu}-CNTATCATQRLAEFLRHSSNN[αMeF]GPILPPTNVGSNTY-NH2; disulfide 1-6) | 12.1 |  | >144 | 18.8 | 24.6 | 46.6
